The structures appear in SMILES notation. The source made the active and inactive calls. No cut-off for these calls is given here.

Data set [1] has as its system GSC-3. As to the kind of experiment: (§1) Cytotoxicity against human GSC3 cells assessed as reduction in cell viability after 72 hrs by MTS assay. The data set is classed as functional, cell-based. In general terms: Tetrazolium assays rely on reduction of a dye to a coloured formazan, in cell work by metabolically active cells.
The test system of data set [2] is GSC-18. As to the kind of experiment: (§2) Cytotoxicity against human GSC18 cells assessed as reduction in cell viability after 72 hrs by MTS assay. The data set is classed as functional, cell-based.
In data set [3] the test system is HEK-293T. In words: Cytotoxicity against human 293T cells assessed as reduction in cell viability after 72 hrs by MTS assay. The data set is classed as cell-based. Conditions: for IC50: Homo sapiens, HEK-293T.
For data set [4], the system named is HUVEC. As to the kind of experiment: Cytotoxicity against HUVEC assessed as reduction in cell viability after 72 hrs by MTS assay. The data set is classed as cell-based, Homo sapiens. To be noted: for IC50: Homo sapiens, HUVEC.
The test system of data set [5] is GSC-3. As to the kind of experiment: Inhibition of colony formation in human GSC-3 cells assessed as tumor spheres damage at 15 uM after 2 weeks by crystal violet staining based assay. The data set is classed as functional, cell-based.
Data set [6] relates to GSC-18. In words: Inhibition of colony formation in human GSC-18 cells assessed as tumor spheres damage at 15 uM after 2 weeks by crystal violet staining based assay. The data set is classed as functional, cell-based.
Data set [7] deals with GSC-3. As to the kind of experiment: Inhibition of colony formation in human GSC-3 cells assessed as decrease in number of tumor spheres at 15 uM after 2 weeks by crystal violet staining based assay. The data set is classed as functional, cell-based.
Data set [8] has as its system GSC-18. As to the kind of experiment: Inhibition of colony formation in human GSC-18 cells assessed as decrease in number of tumor spheres at 15 uM after 2 weeks by crystal violet staining based assay. The data set is classed as functional, cell-based.
The nature of data set [9]: as §1. The data set is classed as functional, cell-based. Conditions: GSC-3, 72 h.
Data set [10] in a line: as §2. The data set is classed as functional, cell-based, GSC-18. Conditions: GSC18, 72 h.
For data set [11], the system named is T98G. In words: Cytotoxicity against human T98G assessed as reduction in cell viability after 72 hrs by MTS assay. The data set is classed as cell-based.
The test system of data set [12] is U-87 MG. In words: Cytotoxicity against human U-87 MG cells assessed as reduction in cell viability after 72 hrs by MTS assay. The data set is classed as cell-based, U-87MG ATCC.
Data set [13] has as its system GSC-3. In words: Cytotoxicity against human GSC3 cells assessed as inhibition of cell growth at 20 uM after 5 days. The data set is classed as functional, cell-based. Conditions: time 5.0 day.
The test system of data set [14] is GSC-18. As to the kind of experiment: Cytotoxicity against human GSC18 cells assessed as inhibition of cell growth at 20 uM after 5 days. Conditions: time 5.0 day. The data set is classed as functional, cell-based.
The test system of data set [15] is T98G. As to the kind of experiment: Cytotoxicity against human T98G cells assessed as inhibition of cell growth at 20 uM after 5 days. The data set is classed as cell-based. To be noted: 120 h, time 5 day.
In data set [16] the test system is U-87 MG. In words: Cytotoxicity against human U-87 MG cells assessed as inhibition of cell growth at 20 uM after 5 days. Conditions: u-87mg atcc, 120 h, time 5 day. The data set is classed as cell-based.
For data set [17], the system named is HEK-293T. In words: Cytotoxicity against human 293T cells assessed as inhibition of cell growth at 20 uM after 5 days. The data set is classed as cell-based. To be noted: 120 h, time 5 day.
Data set [18] has as its system HUVEC. In words: Cytotoxicity against HUVEC assessed as inhibition of cell growth at 20 uM after 5 days. The data set is classed as cell-based. Conditions: human, 120 h, time 5 day.

In the case of `C[C@@H]1CC[C@@]2(OC1)O[C@H]1C[C@H]3[C@@H]4CC=C5C[C@@H](O[C@@H]6O[C@H](CO)[C@@H](O[C@@H]7O[C@@H](C)[C@H](O)[C@@H](O)[C@H]7O)[C@H](O)[C@H]6O[C@@H]6O[C@@H](C)[C@H](O)[C@@H](O)[C@H]6O)CC[C@]5(C)[C@H]4CC[C@]3(C)[C@H]1[C@@H]2C`, the result in data set [1] and in data set [2] was Active.
A word on the IC50: it is the concentration at which inhibition is half-maximal. Regarding `C[C@@H]1CC[C@@]2(OC1)O[C@H]1C[C@H]3[C@@H]4CC=C5C[C@@H](O[C@@H]6O[C@H](CO)[C@@H](O[C@@H]7O[C@@H](C)[C@H](O[C@@H]8O[C@@H](C)[C@H](O)[C@@H](O)[C@H]8O)[C@@H](O)[C@H]7O)[C@H](O)[C@H]6O[C@@H]6O[C@@H](C)[C@H](O)[C@@H](O)[C@H]6O)CC[C@]5(C)[C@H]4CC[C@]3(C)[C@H]1[C@@H]2C` [PENNOGENIN RAHAMNOSYL CHACOTRIOSIDE], the result in data set [1] and in data set [2] was inactive. In addition, the IC50 in data set [3] and in [4] was 1.83 µM throughout.
As for `Cn1nnc2c(C(N)=O)ncn2c1=O`, the outcome in data set [5] and in data set [6] was Active. The inhibition entry in data set [7] and in [8] was “Active” each time.
As for `C[C@H](CC[C@@]1(O)O[C@H]2C[C@H]3[C@@H]4CC=C5C[C@@H](O[C@@H]6O[C@H](CO)[C@@H](O[C@@H]7O[C@@H](C)[C@H](O)[C@@H](O)[C@H]7O)[C@H](O)[C@H]6O[C@@H]6O[C@@H](C)[C@H](O)[C@@H](O)[C@H]6O)CC[C@]5(C)[C@H]4CC[C@]3(C)[C@H]2[C@@H]1C)CO[C@@H]1O[C@H](CO)[C@@H](O)[C@H](O)[C@H]1O`, the IC50 in data set [9] worked out at 1.03 µM; in data set [10], 1.09 µM; in [3], 3.22 µM; in data set [4], 3.22 µM.
As for `CC(=O)O[C@H]1C(=O)[C@@]2(C)[C@H]([C@H](OC(=O)c3ccccc3)[C@]3(O)C[C@H](OC(=O)[C@H](O)[C@@H](NC(=O)c4ccccc4)c4ccccc4)C(C)=C1C3(C)C)[C@]1(OC(C)=O)CO[C@@H]1C[C@@H]2O` [PACLITAXEL], the IC50 is 11.3 µM in data set [9]; 9.6 µM in data set [10]; 0.01 µM in data set [3]; 0.005 µM in [4]; 0.012 µM in data set [11] (Homo sapiens, T98G); 0.008 µM in data set [12] (Homo sapiens, U-87 MG). Moreover, the result in data set [13] and in data set [14] was Active. For the same compound, the Activity result in [15], in data set [16], in [17] and in data set [18] was “Toxic” throughout.
Take `C[C@@H]1CC[C@@]2(OC1)O[C@H]1C[C@H]3[C@@H]4CC=C5C[C@@H](O[C@@H]6O[C@H](CO)[C@@H](O)[C@H](O)[C@H]6O[C@@H]6O[C@@H](C)[C@H](O)[C@@H](O)[C@H]6O)CC[C@]5(C)[C@H]4CC[C@]3(C)[C@H]1[C@@H]2C` [OPHIOPOGONIN C]: the IC50 in data set [9] and in [10] was 0.78 µM each time. Moreover, the Activity result in data set [3] (human, hek-293t, time 72 hrs) is reported as “Non-Toxic”; in data set [4] (human, huvec, time 72 hrs), “Non-Toxic”; in data set [11] (human, t98g, time 72 hrs), “Non-Toxic”; in data set [12] (human, u-87mg atcc, time 72 hrs) it was “Non-Toxic”.
Consider `C[C@@H]1O[C@@H](O[C@H]2[C@H](O[C@H]3CC[C@@]4(C)C(=CC[C@H]5[C@@H]6C[C@@H]7O[C@@]8(OC[C@H](CO)CC8O[C@H]8O[C@@H](CO)[C@H](O)[C@@H](O)[C@@H]8O)[C@@H](C)[C@@H]7[C@@]6(C)CC[C@@H]54)C3)O[C@H](CO)[C@@H](O[C@@H]3O[C@@H](C)[C@H](O)[C@@H](O)[C@H]3O)[C@@H]2O)[C@H](O)[C@H](O)[C@H]1O` (stereo partly specified), for which the result in data set [1] and in data set [2] was inactive.
For the compound `CO[C@]1(CC[C@@H](C)CO[C@@H]2O[C@H](CO)[C@@H](O)[C@H](O)[C@H]2O)O[C@H]2C[C@H]3[C@@H]4CC=C5C[C@@H](O[C@@H]6O[C@H](CO)[C@@H](O[C@@H]7O[C@@H](C)[C@H](O)[C@@H](O)[C@H]7O)[C@H](O)[C@H]6O[C@@H]6O[C@@H](C)[C@H](O)[C@@H](O)[C@H]6O)CC[C@]5(C)[C@H]4CC[C@]3(C)[C@H]2[C@@H]1C` [METHYLPROTODIOSCIN], the IC50 in [9] and in data set [10] was 1.82 µM throughout.

These data come from ChEMBL document CHEMBL4732125, “Structures/cytotoxicity/selectivity relationship of natural steroidal saponins against GSCs and primary mechanism of tribulosaponin A” (Eur J Med Chem, 2021).
